# Laboratory results published in patent US9790180B2, “Piperidine derivatives as HDAC1/2 inhibitors” (Acetylon Pharmaceuticals, Inc., priority 2014, dated 2017).
# Like-named read-outs stand apart in the source and are kept apart here.
# What was measured:
# Microsome stability = format: in vitro ADME
# HDAC3 = HDAC3 (Homo sapiens (Human), UniProt O15379); experiment: HDAC enzyme assay, HDAC3; format: biochemical
# Method: (§1) Compounds for testing were diluted in DMSO to 50 fold the final concentration and a ten point three fold dilution series was made. The compounds were diluted in assay buffer (50 mM HEPES, pH 7.4, 100 mM KCl, 0.001% Tween-20, 0.05% BSA, 20 μM tris(2-carboxyethyl)phosphine) to 6 fold their final concentration. The HDAC enzymes (purchased from BPS Biosciences) were diluted to 1.5 fold their final concentration in assay buffer and pre-incubated with the compounds for 24 hours prior to addition of the substrate.
# (§2) The substrate tripeptide substrate 3 (synthesized in house) for each enzyme was equal to the Km as determined by a substrate titration curve. The substrates were diluted in assay buffer at 6× their final concentration with 0.3 μM sequencing grade trypsin (Sigma). The substrate/trypsin mix was added to the enzyme/compound mix, the plate was shaken for 60 seconds and placed into a Spectramax M5 microtiter plate reader. The development of fluorescence was monitored for 30 min and the linear rate of the reaction was calculated. The IC50 was determined using Graph Pad Prism by a four parameter curve fit. The IC50 values obtained for the compounds of this invention are found in Table 1. Examples of the curves are found in FIGS. 1 and 4.
# hERG channel = hERG channel (Homo sapiens (Human), UniProt Q12809); experiment: hERG assay (QPatch, CHO cell line expressing hERG channels); format: cell-based; settings: for hERG: In vitro tox
# Method: For hERG assays, a CHO cell line stably transfected with hERG cDNA and expressing hERG channels were seeded into a QPatch plate (Sophion) at a density of 3-8×10^6 cells/ml. The cells were voltage clamped at a holding potential of −80 mV. The hERG current was activated by depolarizing at +20 mV for 5 sec, after which the current was taken back to −50 mV for 5 sec to remove the inactivation and observe the deactivating tail current. The maximum amount of tail current size was used to determine hERG current amplitude. Six doses (30, 10, 3, 1, 0.3 and 0.1 μM) of Compound 003 were chosen to obtain fitting curves and IC50. Data were analyzed using Assay Software provided by Sophion and Graphpad Prism.
# HDAC2 = HDAC2 (Homo sapiens (Human), UniProt Q92769); experiment: HDAC enzyme assay, HDAC2; format: biochemical
# Method: as §1, §2
# [1] = Rat cassette pharmacokinetics; format: in vivo; settings: male, SD, plasma; for bioavailability: 5 mg/kg, rat, oral AUC to IV AUC, dose adjusted; for AUC / Cmax / half-life / CL renal: rat cassette dosing; for AUC / Cmax / half-life: 5 mg/kg PO; for half-life: read-out: PO T½ (converted); for CL renal: IV 1 mg/kg, read-out: IV Clr. (converted)
# Method: Male SD rats were fasted overnight. Compounds of the invention were dissolved in dimethyl acetamide at 10 times the final concentration, then Solutol HS 15 (BASF) was added to a final concentration of 10%. Finally 80% saline was added and vortexed to achieve a clear solution. For the IV dosing three animals were injected via the foot dorsal vein with 1 mg/kg compound. For the PO dosing 5 mg/kg of compound was delivered by oral gavage. Blood was collected via the tail vein into K2EDTA tubes at 5 minutes, 15 minutes, 30 minutes, 1 hour, 2 hours, 4 hours, 8 hours and 24 hours after dosing. The blood was centrifuged at 2000 g for 5 minutes at 4° C. to obtain plasma. The plasma was extracted with acetonitrile and the level of compound was analyzed by LC/MS/MS. The level of compound in plasma was calculated from a standard curve in rat plasma. The IV clearance and area under the curve were calculated using WinNonLin software. The dose adjusted area under the curve for the IV and oral dosing were used to calculate the oral bioavailability.
# HDAC1 = HDAC1 (Homo sapiens (Human), UniProt Q13547); experiment: HDAC enzyme assay, HDAC1; format: biochemical
# Method: as §1, §2
# [2] = test system: fetal β-like globin (HbG, γ); experiment: Fetal globin induction assay in CD34+ cells isolated from human bone marrow; format: cell-based; settings: for Cell based assay potency: lowest concentration to achieve a 2 fold increase in fetal globin gene expression over baseline
# Method: CD34+ cells isolated from human bone marrow were cultured in vitro using a method described by Bradner J E (Proc Natl Acad Sci USA. 2010 Jul. 13; 107(28):12617-22), which consists of a 7 day expansion phase in media that supports differentiation of cells towards the erythroid lineage followed by a differentiation phase for 3 days where erythroid cell development continues. At the end of the differentiation period these cells are primarily late erythroblasts. mRNA levels were determined by quantitative real time PCR using primer/probe sets designed to adult major β-globin (β), adult minor β-globin (δ), fetal β-like globin (HbG, γ), and embryonic β-like globin (ε). Protein levels were determined by flow cytometry using fluorescent antibodies against fetal hemoglobin (HbF) or adult hemoglobin (HbA).
# In the experiment shown in FIG. 3, cells were differentiated in the presence of vehicle (DMSO) 0.3, 1 and 3 μM of Compound A, and of 0.3, 1, and 3 μM of Compound 003. In the experiment shown in FIG. 6, cells were differentiated in the presence of vehicle (DMSO) 0.3, 1 and 3 μM of Compound A, and of 0.3, 1, and 3 μM of Compound 005. Globin mRNA levels were determined at day 3 of differentiation.
# Solubility = format: physicochemical
# [3] = test system: CYP1A2, CYP2C9, CYP2C19, CYP3A4, CYP2D6; experiment: Cyp inhibition in human liver microsomes; format: in vitro ADME; settings: for Cyp: In vitro tox, human liver microsomes
# Method: For Cyp inhibition, human live microsomes from BD Gentest were incubated with Compound 003 (10, 3.33, 1.11, 0.37, 0.12, 0.04, 0.01 μM) and substrate (CYP1A2: Phenacetin at 30 μM; CYP2C9: Diclofenac at 10 μM; CYP2C19: S-Mephenytoin at 35 μM; CYP3A4: Midazolam at 5 μM and Testosterone at 80 μM; CYP2D6: Bufuralol at 10 μM) for the following incubation times: CYP1A2, 2C9, 2D6: 10 minutes, 37° C.; CYP2C19: 45 minutes, 37° C.; CYP3A4: 5 minutes, 37° C. Substrate conversion was measured by liquid chromatography/mass spectrometry/mass spectrometry (LC/MS/MS). Inhibition was calculated by curve fitting in Graph Pad Prism.
# [4] = test system: bacterial tester strains TA98, TA100, TA1535 and TA97a and E. coli tester strain WP2 uvrA; experiment: Ames genotoxicity (bacterial reverse mutation)
# Method: For genotoxicity, bacterial tester strains TA98, TA100, TA1535 and TA97a as described by Ames et al. (1975) and the E. coli tester strain WP2 uvrA as described by Green and Muriel (1976) were incubated with Compound 003 at 250, 75, 25, 7.5, 2.5, 0.75, 0.25, and 0.075 μg/well in 24 well plates either with or without liver homogenate (S9) purchased commercially (MolTox; Boone, N.C.) prepared from male Sprague Dawley rats that have been injected intraperitonealy with Aroclor 1254 (200 mg/mL in corn oil), at a dose of 500 mg/kg, 5 days before sacrifice. Mutagenicity is evaluated by counting the number of colonies that form on non-permissive media.
# [5] = test system: human peripheral blood lymphocytes (HPBL); experiment: Micronucleus formation assay; format: cell-based
# Method: Genotoxicity was further evaluated by micronucleus formation assay in human peripheral blood lymphocytes (HPBL). HPBL were obtained from healthy donors and exposed to Compound 003 at […] for 4 hours with or without S9 activation. The cells were washed with PBS and incubated in complete medium with 6 μg/ml cytocholasin B for 24 hours. The cells were then lysed, fixed, and mounted on microscope slides. The number of mononucleated, binucleated, and micronucleated cells was counted under blinded conditions.
# Gata2 mRNA = Gata2 mRNA induction in erythroid progenitors; format: cell-based, human; settings: primary erythroid progenitors, 3 days differentiation, relative to beta-actin mRNA (FIG. 7)
# From the text: Human bone marrow derived CD34+ cells were expanded for 7 days as described by Sankaran et al., Science, vol. 322(5909), pp. 1839-42 (2008). Cells were then differentiated, in the presence of the indicated concentration of Compound 005, Compound A (another known HDAC1/2 inhibitor), or vehicle control (DMSO), for 3 days in media supporting erythropoiesis (Hu et al., “Isolation and functional characterization of human erythroblasts at distinct stages: implications for understanding of normal and disordered erythropoiesis in vivo”, Blood, vol. 121(16), pp. 3246-53 ([…])). Gata2 mRNA was determined using quantitative real time PCR and expressed relative to the level beta-actin mRNA control.
# [6] = 24 hours pre-incubation with enzyme, read-out: IC50 (nM) HDAC3
# [7] = 24 hours pre-incubation with enzyme, read-out: IC50 (nM) HDAC2
# [8] = 24 hours pre-incubation with enzyme, read-out: IC50 (nM) HDAC1
# Sequence of hERG channel (Q12809 whole entry): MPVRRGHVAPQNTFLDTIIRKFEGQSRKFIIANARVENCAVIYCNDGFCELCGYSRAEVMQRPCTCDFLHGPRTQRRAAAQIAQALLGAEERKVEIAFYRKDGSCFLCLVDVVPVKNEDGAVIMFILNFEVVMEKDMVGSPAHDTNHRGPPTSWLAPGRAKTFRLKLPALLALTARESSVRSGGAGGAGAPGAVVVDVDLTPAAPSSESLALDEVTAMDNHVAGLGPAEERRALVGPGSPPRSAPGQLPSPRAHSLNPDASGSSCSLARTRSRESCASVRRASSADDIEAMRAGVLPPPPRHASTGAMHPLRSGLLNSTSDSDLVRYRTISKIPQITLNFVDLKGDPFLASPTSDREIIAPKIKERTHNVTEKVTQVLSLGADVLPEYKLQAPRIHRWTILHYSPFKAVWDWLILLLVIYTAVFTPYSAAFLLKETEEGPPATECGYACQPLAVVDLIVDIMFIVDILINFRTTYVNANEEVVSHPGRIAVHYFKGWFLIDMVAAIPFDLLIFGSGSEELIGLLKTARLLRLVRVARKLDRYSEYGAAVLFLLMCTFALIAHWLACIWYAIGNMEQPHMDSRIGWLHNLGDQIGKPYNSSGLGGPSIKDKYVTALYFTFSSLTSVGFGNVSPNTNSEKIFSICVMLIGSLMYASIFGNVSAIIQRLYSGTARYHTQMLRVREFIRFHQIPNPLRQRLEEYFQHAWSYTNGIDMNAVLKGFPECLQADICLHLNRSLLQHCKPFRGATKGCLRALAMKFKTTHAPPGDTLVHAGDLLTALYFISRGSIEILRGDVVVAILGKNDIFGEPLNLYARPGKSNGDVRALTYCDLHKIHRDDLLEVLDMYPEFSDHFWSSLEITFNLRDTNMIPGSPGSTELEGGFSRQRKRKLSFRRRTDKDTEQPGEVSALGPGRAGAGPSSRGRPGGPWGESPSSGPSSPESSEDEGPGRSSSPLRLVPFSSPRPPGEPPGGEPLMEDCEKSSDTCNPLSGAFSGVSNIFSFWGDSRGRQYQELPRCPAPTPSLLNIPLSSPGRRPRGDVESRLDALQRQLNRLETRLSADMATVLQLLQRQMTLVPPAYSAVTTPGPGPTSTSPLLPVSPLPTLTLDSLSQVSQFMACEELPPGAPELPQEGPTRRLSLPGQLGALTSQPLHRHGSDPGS
# Sequence of HDAC2 (Q92769 whole entry): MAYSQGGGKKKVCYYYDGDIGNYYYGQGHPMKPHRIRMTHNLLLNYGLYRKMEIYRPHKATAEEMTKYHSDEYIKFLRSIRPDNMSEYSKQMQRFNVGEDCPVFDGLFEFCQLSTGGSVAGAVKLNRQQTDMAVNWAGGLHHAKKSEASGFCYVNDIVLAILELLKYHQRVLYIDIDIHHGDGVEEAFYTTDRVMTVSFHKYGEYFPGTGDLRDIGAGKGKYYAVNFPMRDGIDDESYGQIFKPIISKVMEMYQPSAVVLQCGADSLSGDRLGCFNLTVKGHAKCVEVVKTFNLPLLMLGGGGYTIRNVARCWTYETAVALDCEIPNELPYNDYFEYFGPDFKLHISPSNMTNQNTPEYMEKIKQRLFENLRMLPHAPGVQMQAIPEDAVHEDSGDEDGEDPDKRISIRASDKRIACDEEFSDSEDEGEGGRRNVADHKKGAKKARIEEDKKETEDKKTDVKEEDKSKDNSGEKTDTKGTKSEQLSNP
# Sequence of HDAC1 (Q13547 whole entry): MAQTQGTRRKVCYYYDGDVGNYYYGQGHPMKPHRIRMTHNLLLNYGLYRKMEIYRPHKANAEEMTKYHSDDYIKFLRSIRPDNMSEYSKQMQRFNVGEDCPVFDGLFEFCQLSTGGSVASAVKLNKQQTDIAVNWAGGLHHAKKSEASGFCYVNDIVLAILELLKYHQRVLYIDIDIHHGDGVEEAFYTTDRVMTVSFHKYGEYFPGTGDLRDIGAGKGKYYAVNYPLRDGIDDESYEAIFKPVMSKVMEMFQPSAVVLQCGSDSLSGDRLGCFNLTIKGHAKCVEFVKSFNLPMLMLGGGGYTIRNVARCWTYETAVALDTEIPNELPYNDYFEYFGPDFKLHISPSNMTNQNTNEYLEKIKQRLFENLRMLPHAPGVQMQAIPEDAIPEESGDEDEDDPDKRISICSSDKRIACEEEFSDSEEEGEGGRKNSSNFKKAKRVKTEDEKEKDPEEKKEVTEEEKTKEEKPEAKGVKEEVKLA
# Sequence of HDAC3 (O15379 whole entry): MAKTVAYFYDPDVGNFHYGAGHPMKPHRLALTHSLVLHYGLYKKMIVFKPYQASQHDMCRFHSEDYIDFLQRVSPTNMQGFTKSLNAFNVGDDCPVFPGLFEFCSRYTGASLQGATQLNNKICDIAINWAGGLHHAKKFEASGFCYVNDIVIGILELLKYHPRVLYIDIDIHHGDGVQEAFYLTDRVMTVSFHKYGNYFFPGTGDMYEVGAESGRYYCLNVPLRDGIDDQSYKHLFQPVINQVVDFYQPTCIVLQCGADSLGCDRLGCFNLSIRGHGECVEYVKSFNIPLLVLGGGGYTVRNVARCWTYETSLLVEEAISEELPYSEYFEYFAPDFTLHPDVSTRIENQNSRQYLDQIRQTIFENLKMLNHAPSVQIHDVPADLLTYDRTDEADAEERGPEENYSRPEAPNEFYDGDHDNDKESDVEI
# Sequence of HDAC3 (Q9Y618 395-489 partner): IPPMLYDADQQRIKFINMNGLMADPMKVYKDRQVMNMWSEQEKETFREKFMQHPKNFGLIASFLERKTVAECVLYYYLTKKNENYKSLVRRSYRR
IC50 (HDAC3; [6]),IC50 (HDAC2; [7]),bioavailability [1],AUC [1],Cmax [1],half-life [1],CL renal [1],IC50 (HDAC1; [8]),solubility (Solubility),Compound,Microsome stability (Microsome stability),hERG (hERG channel),Cell based assay potency [2],Cyp [3],also measured
427 nM,38 nM,63%,5960 ng·h/mL,988 ng/mL,228 min,8.83 mL/min/kg,6.5 nM,16.9 µM,CC(C)NC(=O)N1CCC(C)(Nc2ncc(C(=O)Nc3cc(-c4cccs4)ccc3N)cn2)CC1 [Compound 001],11 min,>30 µM,3 µM,–,–
203 nM,28 nM,142%,6090 ng·h/mL,1010 ng/mL,354 min,20 mL/min/kg,7 nM,42.7 µM,CC(C)C1(Nc2ncc(C(=O)Nc3cc(-c4cccs4)ccc3N)cn2)CCN(C(=O)N2CCN(C)CC2)CC1 [Compound 002],–,>30 µM,3 µM,>10 µM,–
–,–,–,–,–,–,–,–,–,"Nc1ccc(-c2cccs2)cc1NC(=O)c1ccc2nc(N3CCNCC3)ccc2c1 [Compound A, reference compound]",–,–,–,–,"IC50 (HDAC3; reference compound, read-out: IC50 for HDAC3): ~114 nM; IC50 (HDAC2; reference compound, read-out: IC50 for HDAC2): ~15 nM; IC50 (HDAC1; reference compound, read-out: IC50 for HDAC1): ~4 nM; induction of % HbG ([2]; primary erythroid progenitors, 3 days differentiation (FIG. 6)): equivalent dose and time-dependent induction; induction of Gata2 mRNA (Gata2 mRNA): equivalent dose and time-dependent induction"

Compound,IC50 (HDAC3; [6]),IC50 (HDAC2; [7]),bioavailability [1],AUC [1],Cmax [1],half-life [1],CL renal [1],IC50 (HDAC1; [8]),solubility (Solubility),Microsome stability (Microsome stability),hERG (hERG channel),Cell based assay potency [2],Cyp [3],also measured
Nc1ccc(-c2cccs2)cc1NC(=O)c1cnc(NC2CCN(C(=O)N3CCOCC3)CC2)nc1 [Compound 003],204 nM,56 nM,118%,59900 ng·h/mL,2320 ng/mL,1020 min,2 mL/min/kg,15 nM,54 µM,4.7 min,>30 µM,3 µM,>10 µM,"Ames ([4]; In vitro tox): Neg; number of revertant colonies ([4]; any strain, with or without S9 activation): did not increase; MN ([5]; In vitro tox): Neg; number of micronucleated cells ([5]; any concentration, 4 hours with or without S9 activation): did not increase; inhibition of the activity of the hERG channel (hERG channel; at the highest concentration of 30 μM): did not inhibit; inhibition of activity of any Cyp ([3]; up to 10 μM): did not inhibit"
